These results are taken from ChEMBL document CHEMBL3425507, “Separation and peroxisome proliferator-activated receptor-γ agonist activity evaluation of synthetic racemic bavachinin enantiomers” (Bioorg Med Chem Lett, 2015).

A short description of data set [1]: Retention time of the compound by supercritical fluid chromatography. It is filed as ADME.
Data set [2] has as its target T1, Peroxisome proliferator-activated receptor gamma (Homo sapiens, UniProt P37231).
T1 sequence (P37231 whole entry): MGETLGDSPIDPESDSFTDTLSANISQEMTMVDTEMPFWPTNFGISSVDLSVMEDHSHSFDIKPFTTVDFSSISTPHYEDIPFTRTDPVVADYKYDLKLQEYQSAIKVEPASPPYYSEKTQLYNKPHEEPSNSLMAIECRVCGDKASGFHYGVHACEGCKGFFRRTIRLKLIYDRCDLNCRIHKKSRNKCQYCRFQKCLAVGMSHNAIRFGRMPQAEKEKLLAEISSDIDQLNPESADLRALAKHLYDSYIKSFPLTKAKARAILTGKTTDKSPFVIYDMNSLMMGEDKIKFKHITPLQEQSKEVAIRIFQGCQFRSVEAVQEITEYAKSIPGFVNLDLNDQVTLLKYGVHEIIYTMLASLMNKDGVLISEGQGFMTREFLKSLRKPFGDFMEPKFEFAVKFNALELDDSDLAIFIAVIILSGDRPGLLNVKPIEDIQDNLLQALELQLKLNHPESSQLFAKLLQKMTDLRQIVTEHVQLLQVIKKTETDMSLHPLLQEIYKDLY
The data set can be described thus: Agonist activity at PPARgamma ligand binding domain (unknown origin) using fluormone Pan-PPAR green tracer by TR-FRET assay based competitive ligand binding method. (In general: TR-FRET usually uses a lanthanide donor and a delayed reading to cut background.)

Usually IC50 stands for the concentration at which inhibition is half-maximal. A higher IC50 goes with weaker potency. Usually Ki stands for a measure of affinity in units of concentration, obtained from inhibition or displacement. A high value points to weaker binding. `COc1cc2c(cc1CC=C(C)C)C(=O)C[C@H](c1ccc(O)cc1)O2`: in data set [1], the Retention_time is 4.99 min. In data set [2], this compound registered a half-inhibitory concentration (IC50) of 0.471 µM and a Ki of 0.169 µM.

For the compound `COc1cc2oc(-c3ccc(O)cc3)cc(=O)c2cc1CC=C(C)C` [BAVACHININ], in data set [2], the half-maximal inhibitory concentration (IC50) turned out to be 0.489 µM and the affinity corresponds to a Ki of 0.176 µM.

In turn, `COc1cc2c(cc1CC=C(C)C)C(=O)C[C@@H](c1ccc(O)cc1)O2` [BAVACHININ A] yielded a Retention_time in data set [1] of 4.4 min. In data set [2], the IC50 was determined as 0.617 µM and affinity was put at a Ki of 0.221 µM.
